Laboratory results reported in patent US11000033B2, “Ketone or oxime compound, and herbicide” (NISSAN CHEMICAL CORPORATION, priority 2014, dated 2021).

Experiments:
Type in all cases: in vivo
wheat [1] = assay: Test Example 4: effect on crop by soil treatment (symbol e); conditions: for Effect on crop grade, e: wheat: application herbicide amount 320 g/ha; for e: wheat, effect grade on crop: 320 g/ha
In short: (§1)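 Seeds were sown in spots on sterilized diluvial soil in a plastic box and covered with about 1.5 cm of soil. Plants were then grown in a greenhouse at 25° C. to 30° C.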

rapeseed = assay: Test Example 4: effect on crop by soil treatment (symbol g); conditions: for Effect on crop grade, g: rapeseed: application herbicide amount 320 g/ha; for g: rapeseed, effect grade on crop: 320 g/ha
In short: as §1

Leptochloa chinensis = assay: Test Example 3: herbicidal effect by foliage application, Wagner pot (symbol D); conditions: application herbicide amount 320 g/ha; for D (Leptochloa chinensis) herbicidal effect grade: Table 24
In short: (§2)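 The compound, formulated as an emulsion and diluted with water to a predetermined rate, is applied uniformly to leaves of two-week-old seedlings growing in submerged alluvial soil at 25–30 °C. Rice is included. Each plant is assessed 3 weeks later using defined criteria.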

Apera spica-venti = assay: Test Example 5: herbicidal effect by foliage application, plastic box (symbol L); conditions: 320 g/ha, 3 weeks after application
In short: (§3)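 Visual herbicidal score, taken three weeks post-application, of seedlings sprayed on the foliage with water-diluted emulsion at a predetermined amount; plants were 14 days old, greenhouse-raised at 25° C. to 30° C.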

Abutilon theophrasti = assay: Test Example 5: herbicidal effect by foliage application, plastic box (symbol M); conditions: 320 g/ha, 3 weeks after application
In short: as §3

Monochoria vaginalis = assay: Test Example 1: herbicidal activity, application before weed generation in submerged conditions (symbol C); conditions: application herbicide amount 320 g/ha
In short: (§4)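 0–5 visual score, 3 wk post-application. Submerged pots, alluvial soil, water 4 cm; seeds sown mixed, rice at 2.5 leaves transplanted. Emulsion diluted to predetermined dose, applied to water surface at sowing. 25–30 °C greenhouse.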

Stellaria media = assay: Test Example 5: herbicidal effect by foliage application, plastic box (symbol P); conditions: 320 g/ha, 3 weeks after application
In short: as §3

rice plant = assay: Test Example 5: effect on crop by foliage application, plastic box (symbol b); conditions: 320 g/ha, 3 weeks after application
In short: (§5)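 Plants were raised from seed in a greenhouse (25° C. to 30° C.) after sowing in a plastic box of sterilized diluvial soil.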

Chenopodium album [2] = assay: Test Example 5: herbicidal effect by foliage application, plastic box (symbol O); conditions: 320 g/ha, 3 weeks after application
In short: as §3

Chenopodium album [3] = assay: Test Example 4: herbicidal effect by soil treatment (symbol O); conditions: for Herbicidal effect grade, O: Chenopodium album: application herbicide amount 320 g/ha; for O: Chenopodium album, herbicidal effect grade: 320 g/ha
Description: Herbicidal Effect Test by Soil Treatment
Sterilized diluvial soil was placed in a plastic box having a length of 21 cm, a width of 13 cm, and a depth of 7 cm. Each of the seeds of Digitaria ciliaris, Setaria viridis, Echinochloa crus-galli var. crus-galli, Avena fatua, Alopecurus myosuroides, Lolium multiflorum Lam., Apera spica-venti, Abutilon theophrasti, Amaranthus retroflexus, Chenopodium album, Stellaria media, Galium spurium, Veronica persica, corn, soybean, rice, wheat, beet, and rapeseed was sowed in a spot-like manner and was covered with the soil of a thickness of about 1.5 cm. Subsequently, the emulsion agent of the compound present invention prepared in accordance with Formulation Example 2 was diluted with water so as to be a predetermined herbicide amount and the diluted emulsion agent was uniformly applied to the surface of the soil with a small-size spray. The plastic box was placed in a greenhouse of 25° C. to 30° C. to grow plant. 3 weeks later from the herbicide application, the effect to each plant was investigated in accordance with the criteria of Test Example 1.

wheat [4] = assay: Test Example 5: effect on crop by foliage application, plastic box (symbol e); conditions: 320 g/ha, 3 weeks after application
In short: as §5

Lolium multiflorum Lam. = assay: Test Example 4: herbicidal effect by soil treatment (symbol K); conditions: for Herbicidal effect grade, K: Lolium multiflorum Lam.: application herbicide amount 320 g/ha; for K: Lolium multiflorum Lam., herbicidal effect grade: 320 g/ha
In short: (§6)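 Seeds were sown in sterilized diluvial soil, covered with about 1.5 cm of soil, and the soil surface was sprayed with a water-diluted emulsion of the compound at a predetermined rate. Plants grew in a greenhouse at 25° C. to 30° C.; effects were scored visually 3 weeks after application.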

Amaranthus retroflexus = assay: Test Example 4: herbicidal effect by soil treatment (symbol N); conditions: for Herbicidal effect grade, N: Amaranthus retroflexus: application herbicide amount 320 g/ha; for N: Amaranthus retroflexus, herbicidal effect grade: 320 g/ha
In short: as §6

rice = assay: Test Example 4: effect on crop by soil treatment (symbol b); conditions: for Effect on crop grade, b: directly sowed rice plant: application herbicide amount 320 g/ha; for b: directly sowed rice plant, effect grade on crop: 320 g/ha
In short: as §1

Avena fatua = assay: Test Example 5: herbicidal effect by foliage application, plastic box (symbol I); conditions: 320 g/ha, 3 weeks after application
In short: as §3

beet = assay: Test Example 4: effect on crop by soil treatment (symbol f); conditions: for Effect on crop grade, f: beet: application herbicide amount 320 g/ha; for f: beet, effect grade on crop: 320 g/ha
In short: as §1

Cyperus difformis = assay: Test Example 3: herbicidal effect by foliage application, Wagner pot (symbol E); conditions: application herbicide amount 320 g/ha; for E herbicidal effect grade: Table 24
In short: as §2

[5] = test system: Echinochloa oryzacola Vasing.; assay: Test Example 1: herbicidal activity, application before weed generation in submerged conditions (symbol A); conditions: application herbicide amount 320 g/ha
In short: as §4

Structure (SMILES)	Effect on crop grade, e: wheat (wheat [1])	Effect on crop grade, g: rapeseed (rapeseed)	D (Leptochloa chinensis) herbicidal effect grade (Leptochloa chinensis)	L: Apera spica-venti, herbicidal effect grade (Apera spica-venti)	M: Abutilon theophrasti, herbicidal effect grade (Abutilon theophrasti)	C (Monochoria vaginalis) herbicidal effect grade (Monochoria vaginalis)	P: Stellaria media, herbicidal effect grade (Stellaria media)	b: directly sowed rice plant, effect on crop grade (rice plant)	O: Chenopodium album, herbicidal effect grade (Chenopodium album [2])	Herbicidal effect grade, O: Chenopodium album (Chenopodium album [3])	e: wheat, effect on crop grade (wheat [4])	Herbicidal effect grade, K: Lolium multiflorum Lam. (Lolium multiflorum Lam.)	Herbicidal effect grade, N: Amaranthus retroflexus (Amaranthus retroflexus)	Effect on crop grade, b: directly sowed rice plant (rice)	I: Avena fatua, herbicidal effect grade (Avena fatua)	Effect on crop grade, f: beet (beet)	E herbicidal effect grade (Cyperus difformis)	A (Echinochloa oryzacola Vasing.) herbicidal effect grade [5]	e: wheat, effect grade on crop (wheat [1])	g: rapeseed, effect grade on crop (rapeseed)	other results
Cc1cc(Br)cc(C)c1C1=C(O)CC(CC(=O)C2CC2)C1=O (racemic) [10-004]	0 (Herbicidal ratio of 5% or lower (almost no effect))	0 (Herbicidal ratio of 5% or lower (almost no effect))	5 (Herbicidal ratio of 90% or more (almost completely withered))	5 (Herbicidal ratio of 90% or more (almost completely withered))	3 (Herbicidal ratio of 40% or higher and lower than 70%)	0 (Herbicidal ratio of 5% or lower (almost no effect))	0 (Herbicidal ratio of 5% or lower (almost no effect))	5 (Herbicidal ratio of 90% or more (almost completely withered))	0 (Herbicidal ratio of 5% or lower (almost no effect))	0 (Herbicidal ratio of 5% or lower (almost no effect))	4 (Herbicidal ratio of 70% or higher and lower than 90%)	5 (Herbicidal ratio of 90% or more (almost completely withered))	0 (Herbicidal ratio of 5% or lower (almost no effect))	5 (Herbicidal ratio of 90% or more (almost completely withered))	5 (Herbicidal ratio of 90% or more (almost completely withered))	0 (Herbicidal ratio of 5% or lower (almost no effect))	5 (Herbicidal ratio of 90% or more (almost completely withered))	5 (Herbicidal ratio of 90% or more (almost completely withered))			
CON=C(CC1CC(O)=C(c2c(C)cc(C)cc2C)C1=O)c1ccc(F)cc1 (stereo not drawn) [1-133]																			0 (Herbicidal ratio of 5% or lower (almost no effect))	0 (Herbicidal ratio of 5% or lower (almost no effect))	herbicidal effect on D (Leptochloa chinensis), grade 0-5 (Leptochloa chinensis): 0 (Herbicidal ratio of 5% or lower (almost no effect)); L: Apera spica-venti, herbicidal effect (criteria 0-5) (Apera spica-venti): 2 (Herbicidal ratio of 20% or higher and lower than 40%); M: Abutilon theophrasti, herbicidal effect (criteria 0-5) (Abutilon theophrasti): 0 (Herbicidal ratio of 5% or lower (almost no effect)); Herbicidal effect grade, C: Monochoria vaginalis (Monochoria vaginalis): 0 (Herbicidal ratio of 5% or lower (almost no effect)); P: Stellaria media, herbicidal effect (criteria 0-5) (Stellaria media): 3 (Herbicidal ratio of 40% or higher and lower than 70%); b: directly sowed rice plant, effect on crop (criteria 0-5) (rice plant): 1 (Herbicidal ratio of 5% or higher and lower than 20%); O: Chenopodium album, herbicidal effect (criteria 0-5) (Chenopodium album [2]): 0 (Herbicidal ratio of 5% or lower (almost no effect)); O: Chenopodium album, herbicidal effect grade (Chenopodium album [3]): 0 (Herbicidal ratio of 5% or lower (almost no effect)); e: wheat, effect on crop (criteria 0-5) (wheat [4]): 0 (Herbicidal ratio of 5% or lower (almost no effect)); K: Lolium multiflorum Lam., herbicidal effect grade (Lolium multiflorum Lam.): 3 (Herbicidal ratio of 40% or higher and lower than 70%); N: Amaranthus retroflexus, herbicidal effect grade (Amaranthus retroflexus): 0 (Herbicidal ratio of 5% or lower (almost no effect)); b: directly sowed rice plant, effect grade on crop (rice): 0 (Herbicidal ratio of 5% or lower (almost no effect)); I: Avena fatua, herbicidal effect (criteria 0-5) (Avena fatua): 3 (Herbicidal ratio of 40% or higher and lower than 70%); f: beet, effect grade on crop (beet): 0 (Herbicidal ratio of 5% or lower (almost no effect)); herbicidal effect on E, grade 0-5 (Cyperus difformis): 0 (Herbicidal ratio of 5% or lower (almost no effect)); Herbicidal effect grade, A: Echinochloa oryzacola Vasing. [5]: 4 (Herbicidal ratio of 70% or higher and lower than 90%)
CC#Cc1cc(C)c(C2=C(O)CC(CC(C)=NOCC(F)(F)F)C2=O)c(C)c1 (stereo not drawn) [9-011]	4 (Herbicidal ratio of 70% or higher and lower than 90%)	4 (Herbicidal ratio of 70% or higher and lower than 90%)	5 (Herbicidal ratio of 90% or more (almost completely withered))	5 (Herbicidal ratio of 90% or more (almost completely withered))	2 (Herbicidal ratio of 20% or higher and lower than 40%)	4 (Herbicidal ratio of 70% or higher and lower than 90%)	0 (Herbicidal ratio of 5% or lower (almost no effect))	5 (Herbicidal ratio of 90% or more (almost completely withered))	1 (Herbicidal ratio of 5% or higher and lower than 20%)	0 (Herbicidal ratio of 5% or lower (almost no effect))	5 (Herbicidal ratio of 90% or more (almost completely withered))	5 (Herbicidal ratio of 90% or more (almost completely withered))	0 (Herbicidal ratio of 5% or lower (almost no effect))	5 (Herbicidal ratio of 90% or more (almost completely withered))	5 (Herbicidal ratio of 90% or more (almost completely withered))	0 (Herbicidal ratio of 5% or lower (almost no effect))	5 (Herbicidal ratio of 90% or more (almost completely withered))	5 (Herbicidal ratio of 90% or more (almost completely withered))			
CON=C(C)CC1CC(OC(=O)C#C[Si](C)(C)C)=C(c2c(C)cc(C)cc2C)C1=O (stereo not drawn) [1-096]																			3 (Herbicidal ratio of 40% or higher and lower than 70%)	3 (Herbicidal ratio of 40% or higher and lower than 70%)	herbicidal effect on D (Leptochloa chinensis), grade 0-5 (Leptochloa chinensis): 5 (Herbicidal ratio of 90% or more (almost completely withered)); L: Apera spica-venti, herbicidal effect (criteria 0-5) (Apera spica-venti): 5 (Herbicidal ratio of 90% or more (almost completely withered)); M: Abutilon theophrasti, herbicidal effect (criteria 0-5) (Abutilon theophrasti): 4 (Herbicidal ratio of 70% or higher and lower than 90%); Herbicidal effect grade, C: Monochoria vaginalis (Monochoria vaginalis): 0 (Herbicidal ratio of 5% or lower (almost no effect)); P: Stellaria media, herbicidal effect (criteria 0-5) (Stellaria media): 2 (Herbicidal ratio of 20% or higher and lower than 40%); b: directly sowed rice plant, effect on crop (criteria 0-5) (rice plant): 5 (Herbicidal ratio of 90% or more (almost completely withered)); O: Chenopodium album, herbicidal effect (criteria 0-5) (Chenopodium album [2]): 2 (Herbicidal ratio of 20% or higher and lower than 40%); O: Chenopodium album, herbicidal effect grade (Chenopodium album [3]): 0 (Herbicidal ratio of 5% or lower (almost no effect)); e: wheat, effect on crop (criteria 0-5) (wheat [4]): 5 (Herbicidal ratio of 90% or more (almost completely withered)); K: Lolium multiflorum Lam., herbicidal effect grade (Lolium multiflorum Lam.): 5 (Herbicidal ratio of 90% or more (almost completely withered)); N: Amaranthus retroflexus, herbicidal effect grade (Amaranthus retroflexus): 4 (Herbicidal ratio of 70% or higher and lower than 90%); b: directly sowed rice plant, effect grade on crop (rice): 5 (Herbicidal ratio of 90% or more (almost completely withered)); I: Avena fatua, herbicidal effect (criteria 0-5) (Avena fatua): 5 (Herbicidal ratio of 90% or more (almost completely withered)); f: beet, effect grade on crop (beet): 0 (Herbicidal ratio of 5% or lower (almost no effect)); herbicidal effect on E, grade 0-5 (Cyperus difformis): 5 (Herbicidal ratio of 90% or more (almost completely withered)); Herbicidal effect grade, A: Echinochloa oryzacola Vasing. [5]: 5 (Herbicidal ratio of 90% or more (almost completely withered))
